Laboratory results reported in patent US4906624A, “6-(((Substituted)pyridin-3-yl)alkyl)-and alkenyl)-tetrahydro-4-hydroxypyran-2-one inhibitors of cholesterol biosynthesis” (Warner-Lambert Company, priority 1988, dated 1990).
Counter-ions that a name gives are not always drawn.

What follows are molecules tested on Cholesterol Synthesis (assay: AICS screen: inhibition of cholesterol synthesis in rats (plasma [14C]cholesterol after sodium [1-14C]-acetate)). Settings: Rattus norvegicus, 50 min; 1.0 mg/kg, single dose, oral gavage, male Sprague-Dawley rats fed 5% cholestyramine; acetate one hour after drug, blood after 50 minutes.
Format: in vivo
Method: The ability of compounds of the present invention to inhibit the biosynthesis of cholesterol was also measured by a method (designated AICS screen) which utilizes the procedure described by A. W. Alberts et al, Proc. Natl. Acad. Sci., (1980), 77, pp 3957-3961.
In this method male Sprague-Dawley rats (200 g body weight) previously fed 5% cholestyramine for three days were randomly divided into groups (N=5/group) and given a single dose of vehicle (controls) or compound by an oral gavage at the indicated doses. One hour after drug dosing, all rats were injected intraperitoneally with sodium[1-^14 C]-acetate (18.75 μCi/rat in 0.2 ml saline). After 50 minutes, blood samples were taken, plasma obtained by centrifugation, and plasma [^14 C]cholesterol measured after saponification and extraction.
`CCc1nc(CC)c(CO)c(-c2ccc(F)cc2)c1/C=C/[C@@H]1C[C@@H](O)CC(=O)O1` (relative stereo) [Example 36] gave a change in vivo at 1 mg/kg of -68%.
For `Cc1cc(-c2ccc(F)cc2)c(/C=C/[C@@H]2C[C@@H](O)CC(=O)O2)c(C(C)C)[n+]1[O-]` (relative stereo) [Example 42, 4α,6β(E)-6-[2-[4-(4-fluorophenyl)-6-methyl-2-(1-methylethyl)-3-pyridinyl]ethenyl]tetrahydro-4-hydroxy-2H-pyran-2-one, N-oxide], the change in vivo at 1 mg/kg was -69%.
`COc1c(C)nc(C(C)C)c(/C=C/[C@@H]2C[C@@H](O)CC(=O)O2)c1-c1ccc(F)cc1` (relative stereo) [Example 38, [4α,6β(E)]-6-[2-[4-(4-fluorophenyl)-5-methoxy-6-methyl-2-(1-methylethyl)-3-pyridinyl]ethenyl]tetrahydro-4-hydroxy-2H-pyran-2-one] showed a change in vivo at 1 mg/kg of -67%.
In the case of `COC(=O)c1c(C(C)C)nc(C(C)C)c(/C=C/[C@@H]2C[C@@H](O)CC(=O)O2)c1-c1ccc(F)cc1` (relative stereo) [Example 13, [2α,4β-(E)]-4-(4-fluorophenyl)-2,6-bis(1-methylethyl)-5-[2-(tetrahydro-4-hydroxy-6-oxo-2H-pyran-2-yl)ethenyl]-3-pyridinecarboxylic acid, methyl ester], the change in vivo at 1 mg/kg is reported as -67%.
Work on `C=Cc1c(C)nc(C(C)C)c(/C=C/[C@@H]2C[C@@H](O)CC(=O)O2)c1-c1ccc(F)cc1` (relative stereo) [Example 40, [4α,6β(E)]-6-[2-[5-ethenyl-4-(4-fluorophenyl)-6-methyl-2-(1-methylethyl)-3-pyidinyl]ethenyl]tetrahydro-4-hydroxy-2H-pyran-2-one] yielded a change in vivo at 1 mg/kg of -68%.
Molecule `O=C1C[C@H](O)C[C@@H](/C=C/c2c(-c3ccc(F)cc3)cc(C(F)F)nc2C(F)(F)F)O1` (relative stereo) [Example 24] has a change in vivo at 1 mg/kg of -54%.
In the case of `Cc1cc(-c2ccc(F)cc2)c(/C=C/[C@@H]2C[C@@H](O)CC(=O)O2)c(C(C)C)n1` (relative stereo) [Example 19, [4α,6β(E)]-6-[2-[4-(4-fluorophenyl)-6-methyl-2-(1-methylethyl)-3-pyridinyl]ethenyl]tetrahydro-4-hydroxy-2H-pyran-2-one], the change in vivo at 1 mg/kg is reported as -72%.
Work on `CC(C)c1cc(-c2ccc(F)cc2)c(/C=C/[C@@H]2C[C@@H](O)CC(=O)O2)c(C(C)C)n1` (relative stereo) [Example 15] yielded a change in vivo at 1 mg/kg of -55%.
With `CC(C)c1nc(-c2ccccc2)cc(-c2ccc(F)cc2)c1/C=C/[C@@H]1C[C@@H](O)CC(=O)O1` (relative stereo) [Example 30, [4α,6β(E)]-6-[2-[4-(4-fluorophenyl)-2-(1-methylethyl)-6-phenyl-3-pyridinyl]ethenyl]tetrahydro-4-hydroxy-2H-pyran-2-one] the change in vivo at 1 mg/kg was -64%.
`Cc1cc(-c2ccc(F)cc2)c(/C=C/[C@@H](O)C[C@@H](O)CC(=O)O)c(C(C)C)n1` (relative stereo) [Example 21, [R*,S*-(E)]-7-[4-(4-fluorophenyl)-6-methyl-2-(1-methylethyl)-3-pyridinyl]-3,5-dihydroxy-6-heptenoic acid, hemicalcium salt] was tested, and the change in vivo at 1 mg/kg was -67%.
Work on `CCc1nc(CC)c(C(=O)OC)c(-c2ccc(F)cc2)c1/C=C/[C@@H]1C[C@@H](O)CC(=O)O1` (relative stereo) [Example 34, [2α,4β(E)]-2,6-diethyl-4-(4-fluorophenyl)-5-[2-(tetrahydro-4-hydroxy-6-oxo-2H-pyran-2-yl)ethenyl]-3-pyridinecarboxylic acid, methyl ester] yielded a change in vivo at 1 mg/kg of -57%.

Same assay, conditions: Rattus norvegicus, 50 min; 1.5 mg/kg, single dose, oral gavage, male Sprague-Dawley rats fed 5% cholestyramine; acetate one hour after drug, blood after 50 minutes
`Cc1cc(C)c(/C=C/[C@@H]2C[C@@H](O)CC(=O)O2)c(-c2ccc(F)cc2)n1` (relative stereo) [Example 28, [4α,6β(E)]-6-[2-[2-(4-fluorophenyl)-4,6-dimethyl-3-pyridinyl]ethenyl]tetrahydro-4-hydroxy-2H-pyran-2-one] showed a change in vivo at 1.5 mg/kg of -64%.
`CCOC(=O)c1c(C)nc(C)c(/C=C/[C@@H]2C[C@@H](O)CC(=O)O2)c1-c1ccc(F)cc1` (relative stereo) [Example 11, [4α,6β-(E)]-4-(4-fluorophenyl)-2,6-dimethyl-5-[2-(tetrahydro-4-hydroxy-6-oxo-2H-pyran-2-yl)ethenyl]-, ethyl ester, 3-pyridinecarboxylic acid] showed a change in vivo at 1.5 mg/kg of -41%.
For `COC(=O)c1c(C(C)C)nc(C)c(/C=C/[C@@H]2C[C@@H](O)CC(=O)O2)c1-c1ccc(F)cc1` (relative stereo) [Example 9], the change in vivo at 1.5 mg/kg was -55%.
